Here are results for nine molecules from patent US20260048151A1, “HEMICYANINE PUSH-PULL DYES BASED ON CHROMENE ELECTRON DONORS” (UNIVERSITY OF CONNECTICUT, priority 2022, published 2026).

Each structure is given as a SMILES string.

Data set [1] is described as follows: Optimal excitation wavelengths of existing VSDs. Type of data set: physicochemical.
Data set [2] can be described thus: Absorption and emission spectra, fluorescence quantum efficiency in EtOH, PBS and lipid vesicles (MLV). Type of data set: physicochemical. The conditions noted are these: for Fluorescence quantum efficiency (FQE): in lipid vesicle suspensions; for emission maximum: membrane-bound (MLV). On the procedure: FIGS. 2A-2C are plots showing absorption and emission spectra of 2a, in comparison with ElectroFluor630, in various solvent environments: MLV, EtOH, and PBS. Multilamellar lipid vesicle suspension (MLV) was prepared by sonicating soybean phosphatidylcholine in PBS buffer (2 mg/mL) to mimic the cell membrane environment. The emission spectra in ethanol and PBS buffer were scaled 10 and 20 times respectively relative to the emission spectra in MLV. Excitation wavelength is 580 nm for emission spectra.
All chemicals were purchased from commercial sources (Sigma Aldrich, Acros, TCI America, Combi-Blocks, and others) and used without further purification. Column chromatography was generally performed on COMBIFLASH NextGen 300 using normal phase silica columns except that for some final dye products amine silica columns were used. Thin layer chromatography (TLC) was carried out on EM 60 F-254 plastic TLC plates. NMR spectra were recorded on Varian 400 MHz, 500 MHz, and 800 MHz instruments at the UConn Heath Structural Biology Facility. All spectra are referenced internally to TMS or residual solvent signals. Electrospray ionization (ESI) high-resolution mass spectra (HRMS) were obtained on a QStar Elite (AB Sciex) at the Department of Chemistry, University of Connecticut. UV/Vis absorption spectra were recorded on a UV-Visible spectrophotometer (Shimadzu, UV-1601PC) and fluorescence emission spectra on a Horiba Fluorolog spectrofluorometer (Horiba, Inc., Edison, NJ). Fluorescence quantum yield for dyes was determined by a relative method using Rhodamine 6G (excited at 480 nm, FQY=0.95 in EtOH) or cresyl violet (excited at 580 nm, FQY=0.54 in MeOH) as the references.
Absorbance and the fluorescence properties of the new VSDs were determined. The absorption and emission spectra for 2a, together with ElectroFluor630, in aqueous buffer (PBS), ethanol, and when intercalated in the membrane of lipid vesicles are shown in FIGS. 2A-C. […] This is particularly advantageous for fluorescence imaging because background fluorescence from unbound dye is negligible. Another characteristic of the hemicyanine VSDs that is preserved by 2a in FIGS. 2A-C is the large Stokes shift between the excitation and emission maxima. 125 nm for the membrane-bound dye. This is also a benefit for fluorescence detection and imaging, as the fluorescence can be readily filtered from scattered exciting light. The broad wavelength window afforded by the spectra is also an important benefit for the design of experiments with multiple fluorescent sensors. For comparative purposes, certain VSDs are shown below.
As expected, the spectra are largely insensitive to alkyl substitution. Table 1 also includes data for ElectroFluor630 (aka Di-4-ANEQ (F) PTEA) for comparison. The absorption maxima of 2a in ethanol (EtOH), aqueous buffer (PBS) and when bound to lipid membranes (multilamellar vesicles, MLV) are red shifted by 77 nm, 63 nm and 63 nm, respectively, relative to ElectroFluor630, which is isostructural to 2a. […] The absorption and emission spectra of 2a, 2b, and 2c are all shifted to the red by 50-65 nm relative to ElectroFluor630.

Data set [3] is described as follows: Voltage sensitivity on voltage-clamped hemispherical lipid bilayer. The conditions noted are these: for Ex (excitation wavelength of optimal voltage sensitivity) / Voltage Sensitivity ΔF/F per 100 mV: long pass emission filter; for Voltage Sensitivity ΔF/F per 100 mV: magnitude at optimal Ex/Em. The source says:
It is known that optimal voltage sensitivity can be obtained by measuring the compounds on a voltage-clamped hemispherical bilayer apparatus. The apparatus can include a patch-clamp amplifier, such as a HEKA EPC-8 patch-clamp amplifier. Measurements can be obtained by stepping the membrane potential between two different potentials for a set time lapse. such as, for example, −110 and −60 mV every 10 ms.
Testing VSDs in a voltage-clamped hemispherical lipid bilayer allows one to determine the sensitivity of the VSDs as a function of excitation wavelength. This system has a Teflon tube filled with KCl and is immersed in a KCl solution in a cuvette. A lipid bubble is blown at the tip of the tube and spontaneously forms a bilayer membrane. The VSD to be tested is introduced on one side of the bilayer, usually in the cuvette. Electrodes in the tube and in the cuvette allow the imposition of a voltage across the membrane and a tungsten lamp coupled to a monochromator allows excitation wavelength dependence of the fluorescence response to voltage steps to be determined. This screening approach has allows for the comparison of the efficacy of newly developed VSDs in a well-controlled, consistent manner and to also determine excitation and emission wavelengths with optimal.
Voltage sensitivities of 2a as a function of voltage is shown in FIG. 3A for excitation at 730 nm and 570 nm. The voltage response is linear over the range of −100 mV to +100 mV; 570 nm is slightly to the blue of the isosbestic point, accounting for the weak but inverted sensitivity at this wavelength. […] This opposite polarity at the blue and red edges underlies the ability to use electrochromic hemicyanine dyes for dual-wavelength ratio imaging. The precise location of the isosbestic point in the excitation wavelength depends on the emission filter used because the emission spectrum is also voltage dependent for hemicyanine dyes.
The magnitude and wavelengths of the optimal voltage sensitivities of all the VSDs on the voltage-clamped hemispherical bilayer are included in the third column of Table 1.

The subject of data set [4] is AtT20 cells. The data set is described as follows: Voltage sensitivity in patch clamped tissue culture cells. The data set is classed as cell-based. The source says: We were motivated by separate requests from a company, Tara Biosystems, and the academic lab of Dr. Jack Rogers (see letters of support), for cardiac applications requiring recording over the course of longer than a full day. This will require dyes with both improved persistence (i.e. long washout times) and photostability (to allow for recording over long periods without appreciable bleaching or phototoxicity). We addressed these requirements via synthesis of a fluorinated chromophore (to improve photostability) with lengthened alkyl chains (to improve the strength of membrane binding and therefore persistence); we are calling it ElectroFluor630p™ (630 for the optimal excitation wavelength and p for persistent). ElectroFluor630p™ is similar to ElectroFluor630™, except that the butyl chains have been replaced with pentyl chains. We characterized this new VSD on both our voltage clamped hemispherical bilayer and on AtT20 cells. […] In addition, we will follow-up on these measurements extending the excitation wavelengths to include 660 nm. This is expected to further increase sensitivity and is an important wavelength for commercialization since the Photoswitch Bolt system, which is being sold for high-throughput cardiac safety screening studies (see letter from Stephen Smith), uses 660 nm laser excitation.
Turning to Preliminary Results for Aim 2. we have already described our characterization of a new VSD in patch clamped tissue culture cells in FIG. 2.

The subject of data set [5] is in-vivo pig heart. The note with it: translational in-vivo pig model (Lee, et al., 2019); cited from earlier work.
Data set [6] can be described thus: Voltage sensitivity on voltage-clamped hemispherical lipid bilayer. The conditions noted are these: 560 nm excitation.
Setting [7] is: in MLV (multilamellar lipid vesicles).

With `CCCCN(CCCC)c1ccc2cc(/C=C/C=C/c3cc[n+](CCC[N+](C)(C)C)c4ccccc34)ccc2c1.[Br-].[Br-]` [di-4-ANBDQPQ], in data set [1], the optimal excitation is recorded as 630 nm.

The molecule `CCCCCN(CCCCC)c1ccc2c(c1)OCC(/C=C/c1cc[n+](CCCS(=O)(=O)[O-])cc1F)=C2` [1b] had an absorption maximum in data set [2] (in EtOH) of 580 nm. In addition, the absorption maximum in data set [2] (setting [7]) stood at 540 nm. Moreover, the absorption maximum in data set [2] (in PBS) turned out to be 552 nm. Moreover, in data set [2], the “Fluorescence quantum efficiency (FQE)” value is on record as 0.25 and the emission maximum came out at 677 nm. In data set [3], the “Ex (excitation wavelength of optimal voltage sensitivity)” value is listed as 640 nm and the “Voltage Sensitivity ΔF/F per 100 mV” value was 8%.

As for `CCCCCN(CCCCC)c1ccc2cc(/C=C/c3c(F)c[n+](CCC[N+](CC)(CC)CC)c4ccccc34)ccc2c1.[Br-].[Br-]` [ElectroFluor630p, Di-5-ANEQ(F)PTEA], the “ΔF/F/100 mV” value is given as “+5.2%” in data set [4] (blue-edge excitation) and −19.4% in data set [4] (red-edge excitation). The “ΔR/R/100 mV (ratio blue/red excitation)” value in data set [4] (ratio measurement) is listed as 29.3%.

The molecule `CCCCN(CCCC)c1ccc2c(c1)OCC(/C=C/c1cc[n+](CCCS(=O)(=O)[O-])cc1F)=C2` [1a] showed an absorption maximum in data set [2] (in EtOH) of 577 nm. This molecule also came in with an absorption maximum in data set [2] (setting [7]) of 540 nm. Further, in data set [2] (in PBS), the absorption maximum is recorded as 546 nm. Further, in data set [2], the “Fluorescence quantum efficiency (FQE)” value is 0.31 and the emission maximum turned out to be 673 nm. Moreover, in data set [3], the “shift to the red of results relative to the FIG. 1 dye” value is ~30 nm, the “Ex (excitation wavelength of optimal voltage sensitivity)” value is 660 nm and the “Voltage Sensitivity ΔF/F per 100 mV” value turned out to be 12%.

In turn, `CCCCCCN(CCCCCC)c1ccc2c(c1)OCC(/C=C/c1cc[n+](CCCS(=O)(=O)[O-])cc1F)=C2` [1c] showed an absorption maximum in data set [2] (in EtOH) of 579 nm. Moreover, the absorption maximum in data set [2] (setting [7]) came to 534 nm. The same molecule gave an absorption maximum in data set [2] (in PBS) of 515 nm. In data set [2], the “Fluorescence quantum efficiency (FQE)” value came to 0.22 and the emission maximum stood at 675 nm. In data set [3], the “Ex (excitation wavelength of optimal voltage sensitivity)” value amounted to 630 nm and the “Voltage Sensitivity ΔF/F per 100 mV” value is recorded as 11%.

Molecule `CCCCN(CCCC)c1ccc2cc(/C=C/c3c(F)c[n+](CCC[N+](CC)(CC)CC)c4ccccc34)ccc2c1.[Br-].[Br-]` [ElectroFluor630, Di-4-ANEQ (F) PTEA, reference compound] gave an absorption maximum in data set [2] (in EtOH) of 618 nm. Also, in data set [2] (setting [7]), the absorption maximum stood at 547 nm. Also, the absorption maximum in data set [2] (in PBS) amounted to 565 nm. In data set [2], the “Fluorescence quantum efficiency (FQE)” value is 0.10 and the emission maximum stood at 686 nm. Also, in data set [3], the “Ex (excitation wavelength of optimal voltage sensitivity)” value came out at 645 nm and the “Voltage Sensitivity ΔF/F per 100 mV” value is recorded as 12%. Also, in data set [1], the “optimal dual excitation, lower wavelength” value is recorded as 470 nm and the “optimal dual excitation, upper wavelength” value came to 630 nm. In addition, the phototoxicity result in data set [5] was “minimal phototoxicity”.

Turning to `CCCCN(CCCC)c1ccc2c(c1)OCC(/C=C/c1c(F)c[n+](CCC[N+](CC)(CC)CC)c3ccccc13)=C2.[Br-].[Br-]` [2a], the “red shift of absorption maximum relative to ElectroFluor630” value is on record as 63 nm in data set [2] (bound to lipid membranes (MLV)), 63 nm in data set [2] (in aqueous buffer (PBS)) and 77 nm in data set [2] (in ethanol (EtOH)). Moreover, the results for the absorption maximum in data set [2] (in EtOH), in data set [2] (setting [7]) and in data set [2] (in PBS) were 701 nm, 614 nm and 633 nm, respectively. Moreover, the “Fluorescence quantum efficiency (FQE)” value in data set [2] worked out at 0.10. The “fluorescence enhancement upon binding to lipid membranes” value in data set [2] (lipid membranes vs unbound dye) is recorded as “over 100 fold”. The “fluorescence quantum efficiency despite bathochromic shift” value in data set [2] (membrane bound, vs ElectroFluor630) was “not diminished”. Also, the emission maximum in data set [2] was 739 nm. The “Stokes shift between excitation and emission maxima” value in data set [2] (membrane-bound dye) stood at 125 nm. Besides, the “ΔF/F/100 mV” value in data set [3] (730 nm excitation) was −17%; in data set [6] it was “+3%”. The “excitation wavelength of voltage sensitivity higher than any previous VSDs” value in data set [3] (at 730 nm) is given as ~100 nm. In data set [3], the “Ex (excitation wavelength of optimal voltage sensitivity)” value was 730 nm. Besides, the “Voltage Sensitivity ΔF/F per 100 mV” value in data set [3] stood at 17%. Besides, the “voltage response of fluorescence” value in data set [3] (range −100 mV to +100 mV, excitation 730 nm and 570 nm) is given as “linear”.

In data set [2] (in EtOH), `CCCCCN(CCCCC)c1ccc2c(c1)OCC(/C=C/c1c(F)c[n+](CCC[N+](CC)(CC)CC)c3ccccc13)=C2.[Br-].[Br-]` [2b] yielded an absorption maximum of 700 nm. In addition, the absorption maximum in data set [2] (setting [7]) is listed as 611 nm. The absorption maximum in data set [2] (in PBS) worked out at 628 nm. Besides, in data set [2], the “Fluorescence quantum efficiency (FQE)” value stood at 0.10 and the emission maximum is listed as 736 nm. Also, in data set [3], the “Ex (excitation wavelength of optimal voltage sensitivity)” value came out at 720 nm and the “Voltage Sensitivity ΔF/F per 100 mV” value amounted to 10%.

Take `CCCCN(CCCC)c1ccc2cc(/C=C/c3cc[n+](CCCS(=O)(=O)[O-])cc3)ccc2c1` [Di-4-ANEPPS, reference compound]: in data set [2] (in EtOH), the absorption maximum was found to be 496 nm. In data set [2] (setting [7]), this molecule returned an absorption maximum of 464 nm. In data set [2] (in PBS), this molecule displayed an absorption maximum of 447 nm. Moreover, in data set [2], the “Fluorescence quantum efficiency (FQE)” value stood at 0.30 and the emission maximum came out at 617 nm. In addition, in data set [3], the “Ex (excitation wavelength of optimal voltage sensitivity)” value amounted to 550 nm and the “Voltage Sensitivity ΔF/F per 100 mV” value was found to be 10%.
